Data on eight molecules can be found in ChEMBL document CHEMBL4359845, “Synthesis and Evaluation of Carbonic Anhydrase Inhibitors with Carbon Monoxide Releasing Properties for the Management of Rheumatoid Arthritis” (J Med Chem, 2019).

The target in data set [1] is T1, Carbonic anhydrase 1 (Homo sapiens, UniProt P00915). Put plainly: Inhibition of recombinant human carbonic anhydrase 1 incubated for 6 hrs prior to testing measured for 10 to 100 secs by phenol red-based stopped-flow CO2 hydration assay.
Data set [2] concerns the target T2, Carbonic anhydrase 2 (Homo sapiens, UniProt P00918). Put plainly: Inhibition of recombinant human carbonic anhydrase 2 incubated for 6 hrs prior to testing measured for 10 to 100 secs by phenol red-based stopped-flow CO2 hydration assay.
Data set [3] concerns the target T3, Carbonic anhydrase 9 (Homo sapiens, UniProt Q16790). Description: Inhibition of recombinant human carbonic anhydrase 9 incubated for 6 hrs prior to testing measured for 10 to 100 secs by phenol red-based stopped-flow CO2 hydration assay.
Another data set has as its target Carbonic anhydrase 12 (Homo sapiens, UniProt O43570). Put plainly: Inhibition of recombinant human carbonic anhydrase 12 incubated for 6 hrs prior to testing measured for 10 to 100 secs by phenol red-based stopped-flow CO2 hydration assay.
Data set [4] has as its target T1, Carbonic anhydrase 1. Description: Inhibition of recombinant human carbonic anhydrase 1 incubated for 15 mins prior to testing measured for 10 to 100 secs by phenol red-based stopped-flow CO2 hydration assay.
Data set [5] has as its target T2, Carbonic anhydrase 2. Description: Inhibition of recombinant human carbonic anhydrase 2 incubated for 15 mins prior to testing measured for 10 to 100 secs by phenol red-based stopped-flow CO2 hydration assay.
Data set [6] concerns the target T3, Carbonic anhydrase 9. Description: Inhibition of recombinant human carbonic anhydrase 9 incubated for 15 mins prior to testing measured for 10 to 100 secs by phenol red-based stopped-flow CO2 hydration assay.
For the next data set, the target named is Carbonic anhydrase 4 (Homo sapiens, UniProt P22748). Description: Inhibition of recombinant human carbonic anhydrase 4 incubated for 15 mins prior to testing measured for 10 to 100 secs by phenol red-based stopped-flow CO2 hydration assay.
In data set [7] the test system is Rattus norvegicus. Put plainly: Antihyperalgesic activity in complete freund's adjuvant-induced Sprague-Dawley rat arthritis model assessed as increase in hind paw withdrawal reflex thresholds at 42.4 mg/kg, po administered 14 days post complete freund's adjuvant challenge and measured up to 45 mins by analgesiometry-based paw pressure test. The class given is functional, organism-based.

Data set [8] concerns Rattus norvegicus. Description: Antihyperalgesic activity in complete freund's adjuvant-induced Sprague-Dawley rat arthritis model assessed as increase in hind paw withdrawal reflex thresholds at 42.4 mg/kg, po administered 14 days post complete freund's adjuvant challenge and measured after 45 to 60 mins by analgesiometry-based paw pressure test. The class given is functional, organism-based.

Data set [9] has as its system Rattus norvegicus. Put plainly: Effect on contralateral paw withdrawal reflex threshold in complete freund's adjuvant-induced Sprague-Dawley rat arthritis model at 42.4 mg/kg, po administered 14 days post complete freund's adjuvant challenge by analgesiometry-based paw pressure test. The class given is ADME, organism-based. Particulars: in vivo, 336 h.
Data set [10] relates to Rattus norvegicus. Description: Antihyperalgesic activity in complete freund's adjuvant-induced Sprague-Dawley rat arthritis model assessed as decrease in weight burden on contralateral to ipsilateral paw at 42.4 mg/kg, po administered 14 days post complete freund's adjuvant challenge and measured up to 45 mins by incapacitance test. The data set is classed as functional, organism-based.

Data set [11] concerns Rattus norvegicus. Put plainly: Antihyperalgesic activity in complete freund's adjuvant-induced Sprague-Dawley rat arthritis model assessed as increase in hind paw withdrawal reflex thresholds at 100 mg/kg, po administered 14 days post complete freund's adjuvant challenge and measured up to 15 mins by analgesiometry-based paw pressure test. The class given is functional, organism-based.

The test system of data set [12] is Rattus norvegicus. Description: Antihyperalgesic activity in complete freund's adjuvant-induced Sprague-Dawley rat arthritis model assessed as increase in hind paw withdrawal reflex thresholds at 100 mg/kg, po administered 14 days post complete freund's adjuvant challenge and measured after 15 to 60 mins by analgesiometry-based paw pressure test. The data set is classed as functional, organism-based.

Data set [13] relates to Rattus norvegicus. Put plainly: Effect on contralateral paw withdrawal reflex threshold in complete freund's adjuvant-induced Sprague-Dawley rat arthritis model at 100 mg/kg, po administered 14 days post complete freund's adjuvant challenge by analgesiometry-based paw pressure test. The data set is classed as ADME, organism-based. Particulars: in vivo, 336 h.
Data set [14] has as its system Rattus norvegicus. Description: Antihyperalgesic activity in complete freund's adjuvant-induced Sprague-Dawley rat arthritis model assessed as decrease in weight burden on contralateral to ipsilateral paw at 100 mg/kg, po administered 14 days post complete freund's adjuvant challenge and measured up to 15 mins by incapacitance test. The class given is functional, organism-based.

Structures are written as SMILES. Active and inactive are the calls of the source. Some results are limits rather than exact numbers.

T1 sequence (P00915 whole entry): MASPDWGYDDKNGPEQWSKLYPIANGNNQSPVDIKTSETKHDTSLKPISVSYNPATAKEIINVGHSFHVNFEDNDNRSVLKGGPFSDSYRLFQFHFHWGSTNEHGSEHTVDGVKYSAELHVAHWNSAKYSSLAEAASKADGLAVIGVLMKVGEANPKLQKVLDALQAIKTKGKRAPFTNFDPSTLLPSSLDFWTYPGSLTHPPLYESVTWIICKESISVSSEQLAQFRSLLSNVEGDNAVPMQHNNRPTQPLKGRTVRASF
Chain of Carbonic anhydrase 12 (O43570 whole entry): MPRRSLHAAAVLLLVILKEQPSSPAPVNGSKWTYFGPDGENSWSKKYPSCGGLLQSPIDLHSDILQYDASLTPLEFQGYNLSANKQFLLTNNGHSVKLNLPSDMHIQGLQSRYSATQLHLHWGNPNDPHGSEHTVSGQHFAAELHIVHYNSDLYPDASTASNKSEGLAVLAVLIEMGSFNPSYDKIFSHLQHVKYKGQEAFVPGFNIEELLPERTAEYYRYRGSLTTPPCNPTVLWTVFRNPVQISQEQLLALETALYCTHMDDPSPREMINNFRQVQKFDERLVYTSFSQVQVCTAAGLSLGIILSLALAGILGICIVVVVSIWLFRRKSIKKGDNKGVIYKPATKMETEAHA
Chain of Carbonic anhydrase 4 (P22748 whole entry): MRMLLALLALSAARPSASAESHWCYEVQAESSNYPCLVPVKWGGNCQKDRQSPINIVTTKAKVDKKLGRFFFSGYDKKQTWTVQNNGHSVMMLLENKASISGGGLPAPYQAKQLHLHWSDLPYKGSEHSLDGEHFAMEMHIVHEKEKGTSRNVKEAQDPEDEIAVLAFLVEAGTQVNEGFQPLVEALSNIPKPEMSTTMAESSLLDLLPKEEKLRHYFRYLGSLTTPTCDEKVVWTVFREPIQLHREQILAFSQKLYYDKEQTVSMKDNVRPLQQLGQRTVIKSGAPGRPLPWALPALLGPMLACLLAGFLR

As to `C#CCOc1ccc2c(c1)OS(=O)(=O)C=C2`, the Ki on Carbonic anhydrase 1 [1] is more than 10000 nM; at Carbonic anhydrase 2 [2], more than 10000 nM; at Carbonic anhydrase 9 [3], 6190 nM; on Carbonic anhydrase 12, 30.3 nM.

Take `C#CCOc1ccc2oc(=O)ccc2c1`: the Ki at Carbonic anhydrase 1 [1] and at Carbonic anhydrase 2 [2] was more than 10000 nM in each case.

Consider `C#CCSc1ccc(S(N)(=O)=O)cc1`, for which the Ki on Carbonic anhydrase 1 [4] was 30.2 nM; on Carbonic anhydrase 2 [5] it was 29.5 nM; at Carbonic anhydrase 9 [6], 7.6 nM.

Turning to `C#CCNc1ccc2c(C)cc(=O)oc2c1`, the figures for the Ki on Carbonic anhydrase 9 [3] and at Carbonic anhydrase 12 were 171 nM and 34.7 nM, respectively.

On to `C#CCNc1ccc(S(N)(=O)=O)cc1`, for which the Ki at Carbonic anhydrase 1 [4] was 852 nM; at Carbonic anhydrase 2 [5] it was 96.5 nM; on Carbonic anhydrase 4 it was more than 10000 nM; on Carbonic anhydrase 9 [6], 416 nM. Besides, the result in the data set with Rattus norvegicus [7] and with Rattus norvegicus [10] was Active. Further, the result with Rattus norvegicus [8] was inactive. In addition, the Activity entry with Rattus norvegicus [9] was “Non-Toxic”.

Regarding `C#CCN(CC#C)CCCCOc1ccc(S(N)(=O)=O)cc1`, the Ki at Carbonic anhydrase 1 [4] is 817 nM; on Carbonic anhydrase 2 [5], 0.44 nM; at Carbonic anhydrase 9 [6] it was 3.8 nM.

Regarding `CC(C)Cc1ccc(C(C)C(=O)O)cc1` (stereo not given) [IBUPROFEN], the result in the data set with Rattus norvegicus [11] and with Rattus norvegicus [14] was Active. Further, the outcome with Rattus norvegicus [12] was inactive. Also, the Activity result in the data set on Rattus norvegicus [13] was “Non-Toxic”.

In the case of `C#CCOc1ccc2c(c1)C=CS(=O)(=O)O2`, the Ki is more than 10000 nM at Carbonic anhydrase 1 [1], more than 10000 nM at Carbonic anhydrase 2 [2], 474 nM on Carbonic anhydrase 9 [3] and 44.5 nM at Carbonic anhydrase 12.

One may read the Ki as a measure of affinity in units of concentration, obtained from inhibition or displacement.
